Laboratory results: publication PMC9145193 (Molecules, 2022)
Several values for one entry are separate records, joined by “and”; a condition that tells them apart may be missing. Equal entries are not always repeated. Where two headings read alike, the source gives them in different places.

Key:
SH-SY5Y cells = assay: Cytotoxicity assay on SH-SY5Y cells (MTT); assay type: cell-based; conditions: 10, 25 and 50 μM, 24 h
Protocol: To evaluate the cytotoxicity of these new compounds, cell viability was tested on SH-SY5Y cells.
SH-SY5Y cells were grown in a 25 cm^2 culture flask in fresh MEM/F12 medium, supplemented with 10% fetal bovine serum, 100 U/mL penicillin, and 100 µg/mL streptomycin, and incubated at 37 °C with 5% CO2. Cells were seeded at a density of 1 × 10^4 cells per well in a 96-well plate. After incubation for 24 h, medium was removed. […] After 24 h treatment, 10 μL of 3-(4,5-dimethyl-2-thiazolyl)-2,5-diphenyl-2-H-tetrazolium bromide was added into each well. After 4 h of incubation at 37 °C, 100 μL of DMSO was added to dissolve the formazan crystals, and the mixture’s absorbance was measured at 490 nm under a microplate reader (FC/K3, Thermo, Waltham, MA, USA). The survival rate was estimated using the formula Ae/Ab × 100%, where Ae and Ab represent the absorbance of SH-SY5Y cells in the presence and absence of the tested drugs, respectively. Each experiment was replicated three times.

AChE = molecular target: T1, AChE (Electrophorus electricus, UniProt O42275); assay: Kinetic study of AChE inhibition (Lineweaver-Burk); assay type: biochemical; conditions: 10a at 0, 0.8 and 1.6 nM
T1 construct: purchased Merck C3389
T1 sequence (O42275 24-633): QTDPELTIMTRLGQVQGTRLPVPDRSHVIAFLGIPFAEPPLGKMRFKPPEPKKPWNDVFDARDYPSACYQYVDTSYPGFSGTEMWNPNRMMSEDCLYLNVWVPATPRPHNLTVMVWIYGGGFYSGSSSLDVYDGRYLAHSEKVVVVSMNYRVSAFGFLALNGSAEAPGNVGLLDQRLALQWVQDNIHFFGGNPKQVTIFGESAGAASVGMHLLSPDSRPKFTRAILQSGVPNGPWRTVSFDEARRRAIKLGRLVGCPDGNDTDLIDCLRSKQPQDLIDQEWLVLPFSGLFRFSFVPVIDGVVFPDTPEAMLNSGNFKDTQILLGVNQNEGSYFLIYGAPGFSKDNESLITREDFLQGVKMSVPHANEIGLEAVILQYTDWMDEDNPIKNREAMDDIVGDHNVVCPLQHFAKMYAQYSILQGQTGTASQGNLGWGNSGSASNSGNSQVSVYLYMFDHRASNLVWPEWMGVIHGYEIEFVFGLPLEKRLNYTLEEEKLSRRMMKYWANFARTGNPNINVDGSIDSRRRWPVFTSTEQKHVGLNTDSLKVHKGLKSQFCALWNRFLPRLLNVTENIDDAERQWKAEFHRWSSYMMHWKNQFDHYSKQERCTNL
Protocol: The mechanistic inhibition study of compound 10a on the AChE was carried out through kinetic parameters such as maximal velocity (Vmax), inhibitory concentration (Ki) and Michalis–Menten dissociation constant (Km).
Kinetic study of AChE inhibition was carried out using Ellman’s method, which is the same as the AChE assay, to determine the kinetic mechanism of chemical inhibition. The kinetic inhibition of compound 10a was analyzed at concentrations of 0.8 and 1.6nM. Lineweaver–Burk reciprocal plots were created by graphing 1/velocity vs. 1/[substrate] at various concentrations of substrate acetylthiocholine. The software GraphPad Prism 8.0 was used to analyze the data.

[1] = DPPH free radical scavenging assay; conditions: 50 μM, mean ± SEM
Protocol: DPPH assay was used to evaluate the free radical scavenging ability of the representative compound 10a, while Trolox was used as a control.
Compound 10a was tested for free radical-scavenging activity using 1,1-diphenyl-2-picryl-hydrazyl (DPPH) (D9132, Merck, Kenilworth, NJ, USA). To make a 0.1 mM concentration of DPPH stock solution, DPPH was dissolved in methanol. […] Trolox was used as a reference. The absorbance was measured at 545 nm after 30 min of reaction at 25 °C.

[2] = molecular target: T2, AChE enzyme from electrophorus electricus (eeAChE) (Electrophorus electricus, UniProt O42275); assay: biochemical; conditions: mean ± SEM from three independent experiments
T2 construct: purchased Merck C3389
T2 sequence (O42275 24-633): as above
Protocol: Donepezil was used as a positive control.
AChE activity was measured by the […] using AChE enzyme from electrophorus electricus (eeAChE) (C3389, Merck, Kenilworth, NJ, USA). AChE solution (2 U/mL) was prepared with 0.1 M phosphate buffer (pH 8.0) firstly. Varied concentrations of test compounds (20 μL), 1 mM 5′-dithiobis (2-nitrobenzoic acid) (DTNB) solution (100 μL), and AChE solution (40 μL) were added in order to each well of a 96-well plate. After incubation for 15 min at 37 °C, the reaction was initiated by adding 20 μL of acetylthiocholine iodide (1 mM) to the mixed solution. The absorbance of each plate was instantly measured at 405 nm using a microplate reader. The inhibition of each compound was estimated using the formula (1−Ai/Ac) × 100, where Ai and Ac represent the absorbance of AChE in the presence and absence of inhibitors, respectively. Each experiment was replicated three times. Plotting curves of log concentration via percentage of inhibition, the IC50 values of all tested compounds were graphically analyzed (Graph Pad Prism 8.0).

Aβ = molecular target: T3, Aβ (Homo sapiens, UniProt P05067); assay: Self-induced Aβ aggregation inhibition by thioflavin T assay; assay type: biochemical; conditions: read-out: Aβ Aggregation Inhibition (%)
T3 construct: Aggregation of β-amyloid peptide (Aβ) is one of the main histopathological hallmarks of AD; purchased Beyotime P9001
T3 sequence (P05067 672-713): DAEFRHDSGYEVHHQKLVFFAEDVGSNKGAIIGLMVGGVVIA
Protocol: Aggregation of β-amyloid peptide (Aβ) is one of the main histopathological hallmarks of AD [34].
A total of 1mg Aβ (P9001, Beyotime, Shanghai, China) was dissolved in 1 mL of hexafluoroisopropanol and aliquoted into 50 μL per tube. Then, 20 μL of DMSO was added into one tube of Aβ solution. The test compound was prepared as a 10 mM of stock solution with DMSO and diluted to 50 μM with PBS (including the control). Then, 20 μL of the test compound and 20 μL of the Aβ solution were added to a 96-well black plate, which was gently tapped to mix the solution, covered tightly and sealed with black tape to prevent evaporation of the solvent, and left in the dark at room temperature for 24 h. Then. 160 μL of THT solution at a concentration of 5 μM was added and the fluorescence absorption was measured at an excitation wavelength of 445 nm and an emission wavelength of 490 nm. The software GraphPad Prism 8.0 was used to analyze the data.

Compound: COc1cc2c(cc1OC)C(=O)/C(=C/c1cc[n+](Cc3ccccc3)cc1C(C)=O)OC2.[Br-] [10a, (Z)-3-Acetyl-1-benzyl-4-((6,7-dimethoxy-4-oxoisochroman-3-ylidene)methyl)pyridin-1-ium bromide]
- Cell viability on SH-SY5Y cells (SH-SY5Y cells): did not significantly alter cell viability
- Type of AChE inhibition (Lineweaver-Burk plot) (AChE): mixed-type inhibitor
- Reduced DPPH (%) [1]: 31.89% and 31.89 ± 3.23%
- IC50 [2]: 1.61 ± 0.02 nM
- inhibition at 25 µM (Aβ): 57 ± 2.68%

Compound: COc1cc2c(cc1OC)C(=O)/C(=C/c1cc[n+](Cc3ccccc3F)cc1C(N)=O)OC2.[Br-] [13b, (Z)-3-Carbamoyl-4-((6,7-dimethoxy-4-oxoisochroman-3-ylidene)methyl)-1-(2-fluorobenzyl)pyridin-1-ium Bromide]
- Cell viability on SH-SY5Y cells (SH-SY5Y cells): did not significantly alter cell viability
- IC50 [2]: 3.54 ± 0.05 nM

Compound: COc1cc2c(cc1OC)C(=O)/C(=C/c1cc[n+](Cc3ccc(C(F)(F)F)cc3)cc1C(N)=O)OC2 [13p, (Z)-3-Carbamoyl-4-((6,7-dimethoxy-4-oxoisochroman-3-ylidene)methyl)-1-(4-(trifluoromethyl)benzyl)pyridin-1-ium Bromide]
- IC50 [2]: 441 ± 7.82 nM

Compound: Oc1ccc(/C=C/c2cc(O)cc(O)c2)cc1 [Resveratrol, reference compound]
- inhibition at 25 µM (Aβ; 25 μM, self-induced, thioflavin T, mean ± SEM): 83.3 ± 5.23%

Compound: Cc1c(C)c2c(c(C)c1O)CCC(C)(C(=O)O)O2 (stereo not shown) [Trolox, reference compound]
- Reduced DPPH (%) [1]: 72.41 ± 4.23%
